In patent US5686458A, “Quinazoline deriviates for treating peptic ulcer” (Yuhan Corporation, priority 1992, dated 1997):
Several values for one entry are separate records, joined by “and”; a condition that tells them apart may be missing. Equal entries are not always repeated. Where two headings read alike, the source gives them in different places.

Experiments:
[1] = test system: gastric secretion stimulated by pentagastrin; test: Inhibition of gastric secretion stimulated by pentagastrin (Experiment 3-2); type: in vivo, Sprague-Dawley male rats; conditions: intravenous; for ED50: Rattus norvegicus
Experimental: The same procedures as in Experiment 3-1 were carried out, except that as a secretion stimulating substance, pentagastrin was infused into the left jugular vein of the rats at a dosage of 24 μg/2 ml/200 g/hr.

[2] = test system: gastric secretion stimulated by histamine; test: Anti-secretory effects when gastric secretion is stimulated by histamine (Experiment 3-1); type: in vivo, Sprague-Dawley male rats; conditions: intravenous; for ED50: Rattus norvegicus, read-out: ED50, gastric secretion inhibition
Experimental: In accordance with the method [see Ghosh and Shild, et al., British Journal of pharmacology 13:54-61 (1958)], anti-secretory effects of the test substances were studied in this Experiment. Sprague-Dawley male rats having a body weight of 200±20 g were divided into 3 groups, Group 1 to be administered with the compound of Example 34, Group 2 to be administered with SK&F96067[see Keeling, D. […] The rats of each Group, deprived of food for 24 hours before the experiment with free access to water, were anesthetized by intraperitoneally administering of 1.5 g/kg of 20% aqueous urethane solution and positioned on the test plate which was heated and maintained at 37° C. The anesthetized rats were cannulated at the right jugular vein for the administration of the test compounds and the left jugular vein for the administration of stimulating substances. After an abdominal incision, tubes were inserted into the esophagus and duodenum, each of which was connected with saline in a thermostat and a fraction collector. […] To the left jugular vein, histamine was administered as a gastric secretion stimulator. […] The gastric secretion inhibition (%) of the test compounds was calculated from the following equation: The gastric secretion inhibition (%) of the test compounds =(A-C)/(A-B)×100 . . . (IV) in which […]

[3] = target: T1, H^+ /K^+ ATPase, gastric vesicles (Sus scrofa, UniProt P19156); test: Reversibility of inhibition, Dilution and Washout method (Experiment 4-3); type: biochemical, pig; conditions: for Reversibility of the inhibition of the enzyme activity: conclusion from Table 4; for Inhibition of H+/K+ ATPase activity after Dilution and Washout: diluted 50 times; for Inhibition of H+/K+ ATPase activity after Dilution and Washout / Inhibition of H+/K+ ATPase activity before Dilution and Washout: pH 6.4, Example 34 at 6 μM, omeprazole and SK&F96067 at 60 μM
T1 construct: Gastric vesicles were prepared from pig stomach; from tissue; host or cells: pig stomach, lyophilized gastric vesicles
Experimental: The vesicles were lyophilized and kept at -70° C.
To all […] groups, was added 100 μl of lyophilized vesicles prepared in Experiment 4-1 at the concentration of 100 μg protein 1 ml. Then, 5 mM Pipes/Tris buffer(pH 6.4 ) was added to the three groups until the volume of test tubes became 150 μl. After the preincubation for 15 minutes, H^+ /K^+ ATPase activity was measured in accordance with the same procedures as in Experiment 4-2. The concentrations of the test substances as indicated above are the final concentrations.
After the completion of preincubation, each group was diluted 50 times with 5 mM Pipes/Tris buffer(pH 6.4), and then centrifuged for 60 minutes by means of Beckman ultracentrifuge(Model L8-80). The supernatant was discarded and the pellet was suspended with 5 mM Pipes/Tris buffer pH 6.4 until the volume became the same as the preincubation volume.

[4] = target: T2, Proton Pump (H^+ /K^+ ATPase) (Oryctolagus cuniculus, UniProt P27112); test: Inhibition of Proton Pump (H+/K+ ATPase) Activity, in vitro enzyme reaction (Experiment 1); type: biochemical, New Zealand white rabbit
T2 construct: The microsomes thus obtained were used as an enzyme source of the in vitro enzyme reaction study of proton pump; from tissue; host or cells: rabbit stomach, mucosal scrapings, microsomes (180,000 g pellet)
Procedure, shortened: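 Rabbit gastric mucosal microsomes (100 μg/ml) in 50 mM Tris-HCl pH 7.2 with 8 mM MgCl2, 100 mM KCl and 20 mM NH4Cl were preincubated with compound for 15 min at 37 °C. Reaction ran 30 min at 37 °C with 6.7 mM ATP; released phosphate was measured. K+-stimulated activity (Mg/K minus Mg alone) gave IC50 via Litchfield-Wilcoxon.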

proton pump = conditions: background statement; cited from earlier work

T1 sequence (P19156 2-1034 limits assumed): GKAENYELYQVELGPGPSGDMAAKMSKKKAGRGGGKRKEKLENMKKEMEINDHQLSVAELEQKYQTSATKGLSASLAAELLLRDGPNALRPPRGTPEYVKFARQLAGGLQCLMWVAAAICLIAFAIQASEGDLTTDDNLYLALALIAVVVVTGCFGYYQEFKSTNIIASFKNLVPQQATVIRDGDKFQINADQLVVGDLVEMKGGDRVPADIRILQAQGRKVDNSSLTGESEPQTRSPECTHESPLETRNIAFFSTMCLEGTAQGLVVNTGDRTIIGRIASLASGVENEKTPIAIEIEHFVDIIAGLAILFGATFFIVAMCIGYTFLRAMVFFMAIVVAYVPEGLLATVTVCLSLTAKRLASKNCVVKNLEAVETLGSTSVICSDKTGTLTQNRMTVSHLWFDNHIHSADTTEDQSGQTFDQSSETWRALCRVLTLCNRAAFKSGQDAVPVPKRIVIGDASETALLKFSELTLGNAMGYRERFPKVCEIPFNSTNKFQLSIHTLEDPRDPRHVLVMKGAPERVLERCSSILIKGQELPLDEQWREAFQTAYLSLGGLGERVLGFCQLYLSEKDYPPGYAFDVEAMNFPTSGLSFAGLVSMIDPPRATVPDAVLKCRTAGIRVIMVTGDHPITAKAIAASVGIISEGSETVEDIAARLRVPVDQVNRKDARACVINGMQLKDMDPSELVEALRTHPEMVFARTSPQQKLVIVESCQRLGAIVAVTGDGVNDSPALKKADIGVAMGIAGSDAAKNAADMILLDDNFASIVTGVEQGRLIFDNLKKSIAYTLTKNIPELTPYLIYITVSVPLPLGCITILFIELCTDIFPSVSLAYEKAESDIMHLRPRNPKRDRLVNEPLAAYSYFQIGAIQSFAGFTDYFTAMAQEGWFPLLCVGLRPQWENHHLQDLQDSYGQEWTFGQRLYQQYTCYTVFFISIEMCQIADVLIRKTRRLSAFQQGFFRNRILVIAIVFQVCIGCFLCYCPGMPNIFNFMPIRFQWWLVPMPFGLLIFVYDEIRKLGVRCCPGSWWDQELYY
T1 sequence (P18434 whole entry partner): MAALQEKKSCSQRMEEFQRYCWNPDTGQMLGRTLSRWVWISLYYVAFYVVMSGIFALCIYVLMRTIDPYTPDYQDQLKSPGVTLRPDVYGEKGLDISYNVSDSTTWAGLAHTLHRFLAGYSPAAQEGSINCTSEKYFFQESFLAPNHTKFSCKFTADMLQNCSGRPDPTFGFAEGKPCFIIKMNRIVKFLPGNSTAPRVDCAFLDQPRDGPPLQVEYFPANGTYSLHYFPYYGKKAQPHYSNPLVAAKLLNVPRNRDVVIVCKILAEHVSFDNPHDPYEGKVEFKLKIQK
T2 sequence (P27112 whole entry): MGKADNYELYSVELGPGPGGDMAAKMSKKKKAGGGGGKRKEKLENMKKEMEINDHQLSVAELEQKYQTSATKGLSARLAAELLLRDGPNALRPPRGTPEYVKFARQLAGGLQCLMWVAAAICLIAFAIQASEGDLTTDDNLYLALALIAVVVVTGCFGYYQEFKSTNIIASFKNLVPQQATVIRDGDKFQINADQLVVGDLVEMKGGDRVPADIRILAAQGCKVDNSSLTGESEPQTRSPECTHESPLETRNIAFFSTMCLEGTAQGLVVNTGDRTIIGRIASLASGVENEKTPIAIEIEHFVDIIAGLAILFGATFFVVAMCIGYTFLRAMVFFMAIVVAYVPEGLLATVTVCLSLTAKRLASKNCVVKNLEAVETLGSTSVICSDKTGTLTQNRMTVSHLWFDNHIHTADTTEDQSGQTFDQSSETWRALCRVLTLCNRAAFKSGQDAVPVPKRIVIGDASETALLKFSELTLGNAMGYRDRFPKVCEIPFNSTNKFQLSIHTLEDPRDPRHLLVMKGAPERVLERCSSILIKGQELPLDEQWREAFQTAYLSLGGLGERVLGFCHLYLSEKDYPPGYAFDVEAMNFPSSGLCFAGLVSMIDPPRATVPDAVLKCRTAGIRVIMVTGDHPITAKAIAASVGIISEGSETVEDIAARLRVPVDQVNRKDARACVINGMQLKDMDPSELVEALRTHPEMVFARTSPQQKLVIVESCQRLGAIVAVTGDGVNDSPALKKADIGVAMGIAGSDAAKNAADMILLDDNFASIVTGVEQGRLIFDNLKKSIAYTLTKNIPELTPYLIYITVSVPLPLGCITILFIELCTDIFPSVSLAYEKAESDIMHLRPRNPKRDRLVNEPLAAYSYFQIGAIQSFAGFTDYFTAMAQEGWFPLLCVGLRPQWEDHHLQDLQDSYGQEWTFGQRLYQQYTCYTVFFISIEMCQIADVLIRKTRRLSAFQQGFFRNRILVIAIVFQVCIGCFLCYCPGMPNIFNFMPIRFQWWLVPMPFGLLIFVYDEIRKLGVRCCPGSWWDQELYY
T2 sequence (P18597 whole entry partner): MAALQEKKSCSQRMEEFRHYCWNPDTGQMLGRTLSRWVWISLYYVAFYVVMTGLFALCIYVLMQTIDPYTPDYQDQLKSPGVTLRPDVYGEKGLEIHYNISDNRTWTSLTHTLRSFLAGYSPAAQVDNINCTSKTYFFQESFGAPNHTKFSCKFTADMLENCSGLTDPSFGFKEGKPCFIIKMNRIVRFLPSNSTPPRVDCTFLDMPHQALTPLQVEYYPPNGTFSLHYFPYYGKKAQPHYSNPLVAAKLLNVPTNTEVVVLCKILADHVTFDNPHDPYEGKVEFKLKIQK

Row | SMILES | The gastric secretion inhibition ([1]; 1.0 mg/kg) [%] | The gastric secretion inhibition ([1]; 3.0 mg/kg) [%] | The gastric secretion inhibition ([1]; 5.0 mg/kg) [%] | ED50 [1] [mg/kg] | The gastric secretion inhibition (%) ([2]; 0.5 mg/kg) | The gastric secretion inhibition (%) ([2]; 1.0 mg/kg) | The gastric secretion inhibition (%) ([2]; 3.0 mg/kg) | ED50 [2] [mg/kg] | Reversibility of the inhibition of the enzyme activity [3] | Inhibition of H+/K+ ATPase activity after Dilution and Washout [3] [%] | Inhibition of H+/K+ ATPase activity before Dilution and Washout [3] [%] | Effect ratio ([4]; IC50 of Omeprazole / IC50 of test compound) | IC50 ([4]; K+-stimulated H+/K+ ATPase activity, rabbit gastric microsomes, pH 7.2, 37° C., 15 min prereaction, 30 min reaction, read-out: IC50 of test compound, inhibition (50%) of the proton pump activity) [µM] | The gastric secretion inhibition ([1]; 0.3 mg/kg) [%] | The gastric secretion inhibition ([1]; 0.5 mg/kg) [%] | The gastric secretion inhibition (%) ([2]; 0.1 mg/kg) | The gastric secretion inhibition (%) ([2]; 0.3 mg/kg) | Reversibility of the proton pump inhibition (proton pump) | IC50 ([4]; comparative compound, value printed on the line of each test compound, read-out: IC50 of Omeprazole, inhibition (50%) of the proton pump activity)
1 | COc1cccc2c(N3CCc4ccccc4C3C)nc(Nc3ccc(F)cc3C)nc12.Cl (centres unmarked) [Example 34, 8-Methoxy-2-(4-Fluoro-2-Methyl-Phenylamino)-4-(1-Methyl-1,2,3,4-Tetrahydroisoquinoline-2-Yl)Quinazoline Hydrochloride] | 41.2 | 77.0 | 110.2 | 1.31 | 44.4 | 52.0 | 76.5 | 0.9 | reversible | 16 | 84 | 5.45 | 1.7 |  |  |  |  |  | 
2 | COc1ccc2[nH]c([S+]([O-])Cc3ncc(C)c(OC)c3C)nc2c1 (centres unmarked) [Omeprazole, omeprazole, reference compound] | 114.3 |  |  | 0.47 |  | 102.3 |  | 0.29 | irreversible | 67 | 80 |  |  | 5.0 | 63.1 | 8.0 | 49.4 | irreversible | 9.5 µM and 9.3 µM
